Test results reported in paper PMC9866191, “Novel 9-Benzylaminoacridine Derivatives as Dual Inhibitors of Phosphodiesterase 5 and Topoisomerase II for the Treatment of Colon Cancer” (Molecules, 2023).

Tests used:
Type in all cases: cell-based
[1] = test system: panel of 60 human tumor cell lines; assay: NCI 60-cell line one-dose screen (mean); conditions: mean of the 60 cell lines, single dose 10^−5 M, read-out: Mean % Growth Inhibition
Protocol: (§1) The newly synthesized compounds were screened for their in vitro anticancer activity at the Developmental Therapeutic Program (DTP) of the National Cancer Institute (NCI). The screening involved a panel of 60 human tumor cell lines consisting of 9 tissue types to screen for potential anti-cancer agents. The primary screening of submitted compounds was performed by testing a single dose (10^−5 M) in the full NCI-60 panel. The detailed % inhibition by the tested compounds against the 60 cell lines is shown in Tables S1–S3 in the Supporting Information.

UACC-257 = assay: NCI-60 one-dose screen; conditions: Homo sapiens; UACC-257, Melanoma panel; single dose 10^−5 M; read-out: Growth inhibition %
Protocol: as §1

RXF 393 = assay: NCI-60 one-dose screen; conditions: Homo sapiens; RXF 393, Renal Cancer panel; single dose 10^−5 M; read-out: Growth inhibition %
Protocol: as §1

NCI-H23 = assay: NCI-60 one-dose screen; conditions: Homo sapiens; NCI-H23, Non-small cell lung panel; single dose 10^−5 M; read-out: Growth inhibition %
Protocol: as §1

ACHN = assay: NCI-60 one-dose screen; conditions: Homo sapiens, Renal Cancer panel, single dose 10^−5 M, read-out: Growth inhibition %
Protocol: as §1

MDA-MB-231/ATCC = assay: NCI-60 one-dose screen; conditions: Homo sapiens, Breast Cancer panel, single dose 10^−5 M, read-out: Growth inhibition %
Protocol: as §1

SF-539 = assay: NCI-60 one-dose screen; conditions: Homo sapiens; SF-539, CNS Cancer panel; single dose 10^−5 M; read-out: Growth inhibition %
Protocol: as §1

MOLT-4 = assay: NCI-60 one-dose screen; conditions: Homo sapiens; MOLT-4, Leukemia panel; single dose 10^−5 M; read-out: Growth inhibition %
Protocol: as §1

SNB-75 = assay: NCI-60 one-dose screen; conditions: Homo sapiens; SNB-75, CNS Cancer panel; single dose 10^−5 M; read-out: Growth inhibition %
Protocol: as §1

SW-620 = assay: NCI-60 one-dose screen; conditions: Homo sapiens; SW-620, Colon Cancer panel; single dose 10^−5 M; read-out: Growth inhibition %
Protocol: as §1

SK-MEL-5 = assay: NCI-60 one-dose screen; conditions: Homo sapiens; SK-MEL-5, Melanoma panel; single dose 10^−5 M; read-out: Growth inhibition %
Protocol: as §1

COLO 205 = assay: NCI-60 one-dose screen; conditions: Homo sapiens; COLO 205, Colon Cancer panel; single dose 10^−5 M; read-out: Growth inhibition %
Protocol: as §1

U251 = assay: NCI-60 one-dose screen; conditions: Homo sapiens, U-251; U251, CNS Cancer panel; single dose 10^−5 M; read-out: Growth inhibition %
Protocol: as §1

HCT-116 = assay: NCI-60 one-dose screen; conditions: Homo sapiens, read-out: Growth inhibition %
Protocol: as §1

HOP-62 = assay: NCI-60 one-dose screen; conditions: Homo sapiens; HOP-62, Non-small cell lung panel; single dose 10^−5 M; read-out: Growth inhibition %
Protocol: as §1

SK-OV-3 = assay: NCI-60 one-dose screen; conditions: Homo sapiens; SK-OV-3, Ovarian Cancer panel; single dose 10^−5 M; read-out: Growth inhibition %
Protocol: as §1

A549/ATCC = assay: NCI-60 one-dose screen; conditions: Homo sapiens, Non-small cell lung panel, single dose 10^−5 M, read-out: Growth inhibition %
Protocol: as §1

NCI-H226 = assay: NCI-60 one-dose screen; conditions: Homo sapiens; NCI-H226, Non-small cell lung panel; single dose 10^−5 M; read-out: Growth inhibition %
Protocol: as §1

MALME-3M = assay: NCI-60 one-dose screen; conditions: Homo sapiens, Melanoma panel, single dose 10^−5 M, read-out: Growth inhibition %
Protocol: as §1

M14 = assay: NCI-60 one-dose screen; conditions: Homo sapiens; M14, Melanoma panel; single dose 10^−5 M; read-out: Growth inhibition %
Protocol: as §1

A498 = assay: NCI-60 one-dose screen; conditions: Homo sapiens; A498, Renal Cancer panel; single dose 10^−5 M; read-out: Growth inhibition %
Protocol: as §1

UO-31 = assay: NCI-60 one-dose screen; conditions: Homo sapiens; UO-31, Renal Cancer panel; single dose 10^−5 M; read-out: Growth inhibition %
Protocol: as §1

OVCAR-4 = assay: NCI-60 one-dose screen; conditions: Homo sapiens; OVCAR-4, Ovarian Cancer panel; single dose 10^−5 M; read-out: Growth inhibition %
Protocol: as §1

NCI-H460 = assay: NCI-60 one-dose screen; conditions: Homo sapiens; NCI-H460, Non-small cell lung panel; single dose 10^−5 M; read-out: Growth inhibition %
Protocol: as §1

HCC-2998 = assay: NCI-60 one-dose screen; conditions: Homo sapiens; HCC-2998, Colon Cancer panel; single dose 10^−5 M; read-out: Growth inhibition %
Protocol: as §1

SN12C = assay: NCI-60 one-dose screen; conditions: Homo sapiens, Renal Cancer panel, single dose 10^−5 M, read-out: Growth inhibition %
Protocol: as §1

K-562 = assay: NCI-60 one-dose screen; conditions: Homo sapiens, K562; K-562, Leukemia panel; single dose 10^−5 M; read-out: Growth inhibition %
Protocol: as §1

HOP-92 = assay: NCI-60 one-dose screen; conditions: Homo sapiens; HOP-92, Non-small cell lung panel; single dose 10^−5 M; read-out: Growth inhibition %
Protocol: as §1

OVCAR-8 = assay: NCI-60 one-dose screen; conditions: Homo sapiens; OVCAR-8, Ovarian Cancer panel; single dose 10^−5 M; read-out: Growth inhibition %
Protocol: as §1

BT-549 = assay: NCI-60 one-dose screen; conditions: Homo sapiens; BT-549, Breast Cancer panel; single dose 10^−5 M; read-out: Growth inhibition %
Protocol: as §1

EKVX = assay: NCI-60 one-dose screen; conditions: Homo sapiens, Non-small cell lung panel, single dose 10^−5 M, read-out: Growth inhibition %
Protocol: as §1

NCI-H522 = assay: NCI-60 one-dose screen; conditions: Homo sapiens; NCI-H522, Non-small cell lung panel; single dose 10^−5 M; read-out: Growth inhibition %
Protocol: as §1

COc1ccc2nc3ccccc3c(NCc3ccccc3)c2c1 [Compound 25, Benzyl-(2-methoxyacridin-9-yl)-amine]
inhibition at 10 µM [1]: 80%
inhibition at 10 µM (UACC-257): 72.9%
inhibition at 10 µM (RXF 393): 94.1%
inhibition at 10 µM (NCI-H23): 78.5%
inhibition at 10 µM (ACHN): 87.2%
inhibition at 10 µM (MDA-MB-231/ATCC): 72.2%
inhibition at 10 µM (SF-539): 88.2%
inhibition at 10 µM (MOLT-4): 92%
inhibition at 10 µM (SNB-75): 54.5%
inhibition at 10 µM (SW-620): 80.5%
inhibition at 10 µM (SK-MEL-5): 81.2%
inhibition at 10 µM (COLO 205): 119%
inhibition at 10 µM (U251): 77.1%
inhibition at 10 µM (HCT-116): 85.2%
inhibition at 10 µM (HOP-62): 66.4%
inhibition at 10 µM (SK-OV-3): 55.5%
inhibition at 10 µM (A549/ATCC): 81.8%
inhibition at 10 µM (NCI-H226): 65.6%
inhibition at 10 µM (MALME-3M): 77.5%
inhibition at 10 µM (M14): 74%
inhibition at 10 µM (A498): 114%
inhibition at 10 µM (UO-31): 86.2%
inhibition at 10 µM (OVCAR-4): 59.2%
inhibition at 10 µM (NCI-H460): 93.7%
inhibition at 10 µM (HCC-2998): 136%
inhibition at 10 µM (SN12C): 77.5%
inhibition at 10 µM (K-562): 94.2%
inhibition at 10 µM (HOP-92): 113%
inhibition at 10 µM (OVCAR-8): 71.8%
inhibition at 10 µM (BT-549): 49.7%
inhibition at 10 µM (EKVX): 73.1%
inhibition at 10 µM (NCI-H522): 65.4%

Cc1ccc2nc3ccccc3c(NCc3ccccc3)c2c1 [Compound 30, Benzyl-(2-methylacridin-9-yl)-amine]
inhibition at 10 µM [1]: 64.5%
inhibition at 10 µM (UACC-257): 43.4%
inhibition at 10 µM (RXF 393): 98.7%
inhibition at 10 µM (NCI-H23): 64.2%
inhibition at 10 µM (ACHN): 76.8%
inhibition at 10 µM (MDA-MB-231/ATCC): 64.2%
inhibition at 10 µM (SF-539): 76.8%
inhibition at 10 µM (SNB-75): 35%
inhibition at 10 µM (SW-620): 75.7%
inhibition at 10 µM (SK-MEL-5): 41.2%
inhibition at 10 µM (COLO 205): 91.9%
inhibition at 10 µM (U251): 63%
inhibition at 10 µM (HCT-116): 90.6%
inhibition at 10 µM (HOP-62): 56.5%
inhibition at 10 µM (SK-OV-3): 35.7%
inhibition at 10 µM (A549/ATCC): 59.8%
inhibition at 10 µM (NCI-H226): 50.2%
inhibition at 10 µM (MALME-3M): 44.8%
inhibition at 10 µM (M14): 54.4%
inhibition at 10 µM (A498): 88.6%
inhibition at 10 µM (UO-31): 81.7%
inhibition at 10 µM (OVCAR-4): 67.2%
inhibition at 10 µM (NCI-H460): 82.9%
inhibition at 10 µM (HCC-2998): 121%
inhibition at 10 µM (SN12C): 74.5%
inhibition at 10 µM (K-562): 89%
inhibition at 10 µM (HOP-92): 107%
inhibition at 10 µM (OVCAR-8): 66.5%
inhibition at 10 µM (BT-549): 31%
inhibition at 10 µM (EKVX): 50.4%
inhibition at 10 µM (NCI-H522): 63%

Fc1ccc(CNc2c3ccccc3nc3ccccc23)cc1F [Compound 22, Acridin-9-yl-(3,4-difluorobenzyl)-amine]
inhibition at 10 µM [1]: 64.8%
inhibition at 10 µM (UACC-257): 34.9%
inhibition at 10 µM (RXF 393): 92.6%
inhibition at 10 µM (NCI-H23): 64.8%
inhibition at 10 µM (ACHN): 80.7%
inhibition at 10 µM (MDA-MB-231/ATCC): 65.2%
inhibition at 10 µM (SF-539): 77.9%
inhibition at 10 µM (SNB-75): 33.8%
inhibition at 10 µM (SW-620): 76.3%
inhibition at 10 µM (SK-MEL-5): 33.8%
inhibition at 10 µM (COLO 205): 83.9%
inhibition at 10 µM (U251): 69.7%
inhibition at 10 µM (HCT-116): 91.8%
inhibition at 10 µM (HOP-62): 48.7%
inhibition at 10 µM (SK-OV-3): 44.3%
inhibition at 10 µM (A549/ATCC): 70.9%
inhibition at 10 µM (NCI-H226): 52.4%
inhibition at 10 µM (MALME-3M): 49.3%
inhibition at 10 µM (M14): 56.9%
inhibition at 10 µM (A498): 90.2%
inhibition at 10 µM (UO-31): 84.5%
inhibition at 10 µM (OVCAR-4): 64.6%
inhibition at 10 µM (NCI-H460): 85.4%
inhibition at 10 µM (HCC-2998): 97.8%
inhibition at 10 µM (SN12C): 70.3%
inhibition at 10 µM (K-562): 87.7%
inhibition at 10 µM (HOP-92): 109%
inhibition at 10 µM (OVCAR-8): 67.9%
inhibition at 10 µM (BT-549): 31.8%
inhibition at 10 µM (EKVX): 64.5%
inhibition at 10 µM (NCI-H522): 63%

COc1ccc(CNc2c3ccccc3nc3ccccc23)cc1F [Compound 19, Acridin-9-yl-(3-fluoro-4-methoxybenzyl)-amine]
inhibition at 10 µM [1]: 76.2%
inhibition at 10 µM (UACC-257): 62.2%
inhibition at 10 µM (RXF 393): 88.9%
inhibition at 10 µM (NCI-H23): 73%
inhibition at 10 µM (ACHN): 89.1%
inhibition at 10 µM (MDA-MB-231/ATCC): 70.8%
inhibition at 10 µM (SF-539): 81.8%
inhibition at 10 µM (MOLT-4): 91.1%
inhibition at 10 µM (SNB-75): 57.5%
inhibition at 10 µM (SW-620): 83.4%
inhibition at 10 µM (SK-MEL-5): 63.5%
inhibition at 10 µM (COLO 205): 91.3%
inhibition at 10 µM (U251): 73.1%
inhibition at 10 µM (HCT-116): 87.7%
inhibition at 10 µM (HOP-62): 55.5%
inhibition at 10 µM (SK-OV-3): 52%
inhibition at 10 µM (A549/ATCC): 77.2%
inhibition at 10 µM (NCI-H226): 57%
inhibition at 10 µM (MALME-3M): 76.4%
inhibition at 10 µM (M14): 80.1%
inhibition at 10 µM (A498): 106%
inhibition at 10 µM (UO-31): 86.5%
inhibition at 10 µM (OVCAR-4): 73.8%
inhibition at 10 µM (NCI-H460): 93.7%
inhibition at 10 µM (HCC-2998): 94.2%
inhibition at 10 µM (SN12C): 74.1%
inhibition at 10 µM (K-562): 95.2%
inhibition at 10 µM (OVCAR-8): 70.6%
inhibition at 10 µM (BT-549): 50.5%
inhibition at 10 µM (EKVX): 73.9%
inhibition at 10 µM (NCI-H522): 63.8%
